Results from US20100298141A1, “SUBSTITUTED PYRIDINE N-OXIDE HERBICIDES” (E. I. DU PONT DE NEMOURS AND COMPANY, priority 2007, published 2010).

Columns and labels:
cocklebur = assay: Test C pre-/postemergence test; type: in vivo, Xanthium strumarium
In short: (§1)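 Test chemicals were formulated with surfactant in a non-phytotoxic solvent and sprayed both on freshly planted seeds (preemergence) and on 1- to 4-leaf plants of 2–18 cm (postemergence). Flooded-paddy pots received compound directly into 3 cm of standing water, maintained for the test.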

morningglory = assay: Test A pre-/postemergence greenhouse test; type: in vivo, Ipomoea spp.; conditions: for Plant response rating, Morningglory: 0 to 100 scale where 0 is no effect and 100 is complete control; for Morningglory plant response rating: 0 to 100 scale
In short: (§2)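 Greenhouse herbicide screen, pre- and postemergence in parallel. Soil: loam plus sand. Formulation: non-phytotoxic solvent mix with surfactant. Postemergence stage: one to two leaves, 2–10 cm height. Evaluation: visual injury, compared with untreated controls, about 10 days after treatment.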

bermudagrass = assay: Test C pre-/postemergence test; type: in vivo, Cynodon dactylon
In short: as §1

lambsquarters = assay: Test C pre-/postemergence test; type: in vivo, Chenopodium album
In short: as §1

wild oat = assay: Test C pre-/postemergence test; type: in vivo, Avena fatua
In short: as §1

green foxtail = assay: Test C pre-/postemergence test; type: in vivo, Setaria viridis
In short: as §1

duck salad = assay: Test C flooded paddy test; type: in vivo, Heteranthera limosa; conditions: Flood, scale 0 to 100, 0 no effect, 100 complete control, 13 to 15 days
In short: (§3)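 Compound was added to standing water 3 cm above soil, flood maintained, and plants held in a greenhouse before visual scoring against controls at 13 to 15 days.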

redroot pigweed = assay: Test A pre-/postemergence greenhouse test; type: in vivo, Amaranthus retroflexus; conditions: for Plant response rating, Pigweed: 0 to 100 scale where 0 is no effect and 100 is complete control; for Pigweed plant response rating: 0 to 100 scale
In short: as §2

rice = assay: Test C flooded paddy test; type: in vivo, Oryza sativa; conditions: Flood, scale 0 to 100, 0 no effect, 100 complete control, 13 to 15 days
In short: as §3

soybean = assay: Test C pre-/postemergence test; type: in vivo, Glycine max; conditions: for Soybean plant response rating: preemergence, scale 0 (no effect) to 100 (complete control)
In short: as §1

downy brome = assay: Test C pre-/postemergence test; type: in vivo, Bromus tectorum
In short: as §1

catchweed bedstraw = assay: Test C pre-/postemergence test; type: in vivo, Galium aparine
In short: as §1

kochia = assay: Test C pre-/postemergence test; type: in vivo, Kochia scoparia
In short: as §1

blackgrass = assay: Test C pre-/postemergence test; type: in vivo, Alopecurus myosuroides
In short: as §1

woolly cupgrass = assay: Test C pre-/postemergence test; type: in vivo, Eriochloa villosa
In short: as §1

yellow nutsedge = assay: Test C pre-/postemergence test; type: in vivo, Cyperus esculentus
In short: as §1

[1] = 62 g ai/ha, Preemergence, scale 0 to 100
[2] = 125 g ai/ha, preemergence, scale 0 (no effect) to 100 (complete control)
[3] = Postemergence, 62 g ai/ha, scale 0 to 100, 0 no effect, 100 complete control
[4] = Postemergence, 125 g ai/ha, scale 0 to 100, 0 no effect, 100 complete control
[5] = Postemergence, 250 g ai/ha, scale 0 to 100, 0 no effect, 100 complete control
[6] = Preemergence, 31 g ai/ha, scale 0 to 100 (0 no effect, 100 complete control)
[7] = preemergence, 250 g ai/ha, scale 0 (no effect) to 100 (complete control)
[8] = Postemergence, 500 g ai/ha, 0 is no effect, 100 is complete control
[9] = Preemergence, 125 g ai/ha, 0 no effect, 100 complete control

In the case of `[O-][n+]1cc(Cl)ccc1[S+]([O-])Cc1c(C(F)(F)F)nn(CC(F)(F)F)c1Cl` (stereo not shown) [Compound 47], the “Cocklebur plant response rating” value (cocklebur; [1]) is reported as 0, the “Cocklebur plant response rating” value (cocklebur; [2]) is reported as 0 and the “Plant response rating (0 to 100), Cocklebur” value (cocklebur; Postemergence, 31 g ai/ha) is reported as 0. The “Plant response rating, Cocklebur” value (cocklebur; [3]) was 0, the “Plant response rating, Cocklebur” value (cocklebur; [4]) was 0 and the “Plant response rating, Cocklebur” value (cocklebur; [5]) was 0. The “Plant response rating, Cocklebur” value (cocklebur; [6]) was 0, the “Cocklebur plant response rating” value (cocklebur; [7]) was 0 and the “Plant response rating, Morningglory” value (morningglory; Postemergence, 125 g ai/ha) was 60. For the same compound, the “Morningglory plant response rating” value (morningglory; [8]) was 90, the “Morningglory plant response rating” value (morningglory; [9]) was 60 and the “Plant response rating, Morningglory” value (morningglory; Preemergence, 500 g ai/ha) was 80. The “Bermudagrass plant response rating” value (bermudagrass; 62 g ai/ha, Preemergence, scale 0 to 100 (0 no effect, 100 complete control)) was 100, the “Bermudagrass plant response rating” value (bermudagrass; [2]) was 100 and the “Plant response rating (0 to 100), Bermudagrass” value (bermudagrass; Postemergence, 31 g ai/ha) was 0. For the same compound, the “Plant response rating, Bermudagrass” value (bermudagrass; [3]) was 0, the “Plant response rating, Bermudagrass” value (bermudagrass; [4]) was 0 and the “Plant response rating, Bermudagrass” value (bermudagrass; [5]) was 0. For the same compound, the “Plant response rating, Bermudagrass” value (bermudagrass; [6]) was 80, the “Bermudagrass plant response rating” value (bermudagrass; [7]) was 100 and the “Lambsquarters plant response rating” value (lambsquarters; [1]) was 100. The “Lambsquarters plant response rating” value (lambsquarters; [2]) was 100, the “Plant response rating (0 to 100), Lambsquarters” value (lambsquarters; Postemergence, 31 g ai/ha) was 0 and the “Plant response rating, Lambsquarters” value (lambsquarters; [3]) was 0. The “Plant response rating, Lambsquarters” value (lambsquarters; [4]) was 0, the “Plant response rating, Lambsquarters” value (lambsquarters; [5]) was 50 and the “Plant response rating, Lambsquarters” value (lambsquarters; [6]) was 100. For the same compound, the “Lambsquarters plant response rating” value (lambsquarters; [7]) was 100, the “Oat, Wild plant response rating” value (wild oat; [1]) was 10 and the “Oat, Wild plant response rating” value (wild oat; [2]) was 90. For the same compound, the “Plant response rating (0 to 100), Oat, Wild” value (wild oat; Postemergence, 31 g ai/ha) was 0, the “Plant response rating, Oat, Wild” value (wild oat; [3]) was 0 and the “Plant response rating, Oat, Wild” value (wild oat; [4]) was 10. The “Plant response rating, Oat, Wild” value (wild oat; [5]) was 40, the “Plant response rating, Oat, Wild” value (wild oat; [6]) was 10 and the “Oat, Wild plant response rating” value (wild oat; [7]) was 95. For the same compound, the “Foxtail, Green plant response rating” value (green foxtail; [1]) was 85, the “Foxtail, Green plant response rating” value (green foxtail; [2]) was 90 and the “Plant response rating (0 to 100), Foxtail, Green” value (green foxtail; Postemergence, 31 g ai/ha) was 0. The “Plant response rating, Foxtail, Green” value (green foxtail; [3]) was 0, the “Plant response rating, Foxtail, Green” value (green foxtail; [4]) was 5 and the “Plant response rating, Foxtail, Green” value (green foxtail; [5]) was 80. For the same compound, the “Plant response rating, Foxtail, Green” value (green foxtail; [6]) was 70, the “Foxtail, Green plant response rating” value (green foxtail; [7]) was 100 and the “Plant response rating, Ducksalad” value (duck salad; 62 g ai/ha) was 75. The “Plant response rating, Ducksalad” value (duck salad; 250 g ai/ha) was 90, the “Plant response rating, Pigweed” value (redroot pigweed; Postemergence, 125 g ai/ha) was 60 and the “Pigweed plant response rating” value (redroot pigweed; [8]) was 80. For the same compound, the “Pigweed plant response rating” value (redroot pigweed; [9]) was 100, the “Plant response rating, Pigweed” value (redroot pigweed; Preemergence, 500 g ai/ha) was 100 and the “Plant response rating, Rice” value (rice; 62 g ai/ha) was 55. The “Plant response rating, Rice” value (rice; 250 g ai/ha) was 65, the “Soybean plant response rating” value (soybean; 125 g ai/ha) was 60 and the “Plant response rating (0 to 100), Soybean” value (soybean; Postemergence, 31 g ai/ha) was 5. The “Plant response rating (0 to 100), Soybean” value (soybean; Postemergence, 62 g ai/ha) was 15, the “Plant response rating, Soybean” value (soybean; [4]) was 20 and the “Plant response rating, Soybean” value (soybean; [5]) was 50. The “Plant response rating, Soybean” value (soybean; [6]) was 0, the “Soybean plant response rating” value (soybean; 250 g ai/ha) was 80 and the “Bromegrass, Downy plant response rating” value (downy brome; [1]) was 0. The “Bromegrass, Downy plant response rating” value (downy brome; [2]) was 10, the “Plant response rating (0 to 100), Bromegrass, Downy” value (downy brome; Postemergence, 31 g ai/ha) was 0 and the “Plant response rating, Bromegrass, Downy” value (downy brome; [3]) was 0. For the same compound, the “Plant response rating, Bromegrass, Downy” value (downy brome; [4]) was 0, the “Plant response rating, Bromegrass, Downy” value (downy brome; [5]) was 10 and the “Plant response rating, Bromegrass, Downy” value (downy brome; [6]) was 0. The “Bromegrass, Downy plant response rating” value (downy brome; [7]) was 50, the “Galium plant response rating” value (catchweed bedstraw; [1]) was 85 and the “Galium plant response rating” value (catchweed bedstraw; [2]) was 90. For the same compound, the “Plant response rating, Galium” value (catchweed bedstraw; [6]) was 80, the “Galium plant response rating” value (catchweed bedstraw; [7]) was 100 and the “Kochia plant response rating” value (kochia; [1]) was 0. The “Kochia plant response rating” value (kochia; [2]) was 100, the “Plant response rating (0 to 100), Kochia” value (kochia; Postemergence, 31 g ai/ha) was 0 and the “Plant response rating, Kochia” value (kochia; [3]) was 0. The “Plant response rating, Kochia” value (kochia; [4]) was 0, the “Plant response rating, Kochia” value (kochia; [5]) was 0 and the “Plant response rating, Kochia” value (kochia; [6]) was 0. For the same compound, the “Kochia plant response rating” value (kochia; [7]) was 100, the “Blackgrass plant response rating” value (blackgrass; [1]) was 50 and the “Blackgrass plant response rating” value (blackgrass; [2]) was 100. The “Plant response rating (0 to 100), Blackgrass” value (blackgrass; Postemergence, 31 g ai/ha) was 0, the “Plant response rating, Blackgrass” value (blackgrass; [3]) was 20 and the “Plant response rating, Blackgrass” value (blackgrass; [4]) was 40. For the same compound, the “Plant response rating, Blackgrass” value (blackgrass; [5]) was 70, the “Plant response rating, Blackgrass” value (blackgrass; [6]) was 50 and the “Blackgrass plant response rating” value (blackgrass; [7]) was 100. The “Cupgrass, Woolly plant response rating” value (woolly cupgrass; [1]) was 100, the “Cupgrass, Woolly plant response rating” value (woolly cupgrass; [2]) was 100 and the “Plant response rating (0 to 100), Cupgrass, Woolly” value (woolly cupgrass; Postemergence, 31 g ai/ha) was 0. The “Plant response rating, Cupgrass, Woolly” value (woolly cupgrass; [3]) was 0, the “Plant response rating, Cupgrass, Woolly” value (woolly cupgrass; [4]) was 0 and the “Plant response rating, Cupgrass, Woolly” value (woolly cupgrass; [5]) was 50. The “Plant response rating, Cupgrass, Woolly” value (woolly cupgrass; [6]) was 90, the “Cupgrass, Woolly plant response rating” value (woolly cupgrass; [7]) was 100 and the “Nutsedge, Yellow plant response rating” value (yellow nutsedge; [1]) was 30. The “Nutsedge, Yellow plant response rating” value (yellow nutsedge; [2]) was 40, the “Plant response rating (0 to 100), Nutsedge, Yellow” value (yellow nutsedge; Postemergence, 31 g ai/ha) was 0 and the “Plant response rating, Nutsedge, Yellow” value (yellow nutsedge; [3]) was 0. For the same compound, the “Plant response rating, Nutsedge, Yellow” value (yellow nutsedge; [4]) was 0, the “Plant response rating, Nutsedge, Yellow” value (yellow nutsedge; [5]) was 60 and the “Plant response rating, Nutsedge, Yellow” value (yellow nutsedge; [6]) was 0. For the same compound, the “Nutsedge, Yellow plant response rating” value (yellow nutsedge; [7]) was 100.
